US11813340B2, “PSMA targeted radiohalogenated urea-polyaminocarboxylates for cancer radiotherapy” (The Johns Hopkins University, priority 2018, dated 2023)
Read-outs that look alike come from different tables or passages of the source.

Test system: PSMA + PC3-PIP and PSMA-PC3-flu flank xenografts
Settings: for Biodistribution, Blood / Biodistribution, Flu tumor / Biodistribution, Kidneys / Biodistribution, Lacrimal glands / Biodistribution, Pip (tumor) / Biodistribution, Salivary glands / Biodistribution, Spleen / Biodistribution, Stomach: without cold blocking agent
Protocol: Final compounds were purified by HPLC. […] Organs were harvested 1, 4, and 24 h post-injection (n=5 per time point).

## O=C([O-])CN1CCN(CC(=O)[O-])CCN(CC(=O)NCCCCC(=O)N(CCCC[C@H](NC(=O)N[C@@H](CCC(=O)O)C(=O)O)C(=O)O)Cc2ccc([125I])cc2)CCN(CC(=O)[O-])CC1.[Lu+3] [[^125I]VK-02-90-Lu]
1 H
  Biodistribution, Blood: 1.2 ± 0.4 % injected dose/g
  Biodistribution, Flu tumor: 0.9 ± 0.3 % injected dose/g
  Biodistribution, Kidneys: 180 ± 36 % injected dose/g
  Biodistribution, Lacrimal glands: 4.1 ± 1.3 % injected dose/g
  Biodistribution, Pip (tumor): 51 ± 8.5 % injected dose/g
  Biodistribution, Salivary glands: 1.0 ± 0.3 % injected dose/g
  Biodistribution, Spleen: 7.4 ± 2.6 % injected dose/g
  Biodistribution, Stomach: 0.7 ± 0.4 % injected dose/g
4 H
  Biodistribution, Blood: 0.06 ± 0.06 % injected dose/g
  Biodistribution, Flu tumor: 0.3 ± 0.5 % injected dose/g
  Biodistribution, Kidneys: 18.2 ± 4.9 % injected dose/g
  Biodistribution, Lacrimal glands: 0.3 ± 0.1 % injected dose/g
  Biodistribution, Pip (tumor): 27.8 ± 17 % injected dose/g
  Biodistribution, Salivary glands: 0.1 ± 0.05 % injected dose/g
  Biodistribution, Spleen: 0.6 ± 0.2 % injected dose/g
  Biodistribution, Stomach: 0.1 ± 0.1 % injected dose/g
24 H
  Biodistribution, Blood: 0.1 ± 0.01 % injected dose/g
  Biodistribution, Flu tumor: 0.03 ± 0.01 % injected dose/g
  Biodistribution, Kidneys: 3.3 ± 1.1 % injected dose/g
  Biodistribution, Lacrimal glands: 0.06 ± 0.03 % injected dose/g
  Biodistribution, Pip (tumor): 24.0 ± 6.2 % injected dose/g
  Biodistribution, Salivary glands: 0.03 ± 0.01 % injected dose/g
  Biodistribution, Spleen: 0.1 ± 0.06 % injected dose/g
  Biodistribution, Stomach: 0.04 ± 0.01 % injected dose/g
Compared with [^125I]VK-02-90
  clearance from the spleen, salivary glands, lacrimal glands and kidneys: faster clearance
